Values of other authors as cited in US20250122241A1, “CYCLIC PEPTIDE IMMUNOMODULATORS” (BRISTOL-MYERS SQUIBB COMPANY, priority 2021, published 2025).

Conditions: oral administration; extensive first-pass metabolism in the liver

- bioavailability: about 10%
SMILES: CCCC1O[C@@H]2C[C@H]3[C@@H]4CCC5=CC(=O)C=C[C@]5(C)[C@H]4[C@@H](O)C[C@]3(C)[C@]2(C(=O)CO)O1 (stereo partly shown) [budesonide]
